Reference: patent US9399631B2, “Polyphenol proteasome inhibitors, synthesis, and methods of use” (UNIVERSITY OF SOUTH FLORIDA, priority 2003, dated 2016)
“Also recorded” adds a separate entry of the source. Read-outs that look alike come from different tables or passages of the source.

What was measured:
[1] = target: T1, 20S eukaryotic proteasome (Oryctolagus cuniculus, UniProt G1T4Q9); assay: Inhibition of chymotrypsin-like activity of purified eukaryotic 20S proteasome (Suc-Leu-Leu-Val-Tyr-AMC); assay type: biochemical, rabbit; details: chymotrypsin-like activity, rabbit 20S proteasome
T1 construct: purchased BOSTON BIOCHEM (Cambridge, Mass.)
T1 sequence (G1T4Q9 1-263): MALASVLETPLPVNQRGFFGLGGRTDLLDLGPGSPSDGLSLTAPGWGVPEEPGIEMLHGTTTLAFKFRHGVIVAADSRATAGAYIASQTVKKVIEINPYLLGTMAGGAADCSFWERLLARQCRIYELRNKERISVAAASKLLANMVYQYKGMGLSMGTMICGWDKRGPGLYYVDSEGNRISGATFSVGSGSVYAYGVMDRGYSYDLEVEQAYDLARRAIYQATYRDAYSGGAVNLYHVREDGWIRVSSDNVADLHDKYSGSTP
Method: Materials. Highly purified tea polyphenols (−)-EGCG (>95%), (−)-GCG (>98%), (−)-ECG (>98%), (−)-CG (>98%), fetal calf serum, propidium iodide, 3-[4,5-dimethylthiazol-2-yl]-2,5-diphenyltetrazolium bromide (MTT), RNase A, and DMSO were purchased from Sigma (St. Louis, Mo.). (+)-EGCG, benzyl-protected-(+)-EGCG, (+)-GCG, (−)-EGCG-amide, and (+)-EGCG-amide were prepared by enantioselective synthesis (see below). Purified 20S eukaryotic proteasome from rabbit was purchased from BOSTON BIOCHEM (Cambridge, Mass.). Purified 20S prokaryotic proteasome (Methanosarcina thermophile, Recombinant, E. coli) was purchased from CALBIOCHEM (La Jolla, Calif.). Fluorogenic peptide substrates Suc-Leu-Leu-Val-Tyr-AMC (for the proteasomal chymotrypsin-like activity) was obtained from Calbiochem (La Jolla, Calif.). RPMI 1640 medium, Dulbecco's modified Eagle's medium, MEM non-essential amino acids solution, MEM-sodium pyruvate solution, penicillin, and streptomycin were from INVITROGEN (Carlsbad, Calif.). Monoclonal antibody to p27^Kip was purchased from PHARMINGEN (San Diego, Calif.); polyclonal antibodies to IκB-α, Bax and actin, and monoclonal antibody to ubiquitin were from SANTA CRUZ Biotechnology Inc. (Santa Cruz, Calif.).
(§1) Inhibition of purified 20S proteasome activity by natural or synthetic GTPs. Purified prokaryotic (0.5 μg) or eukaryotic (0.02 μg) 20S proteasome was incubated with 20 μM fluorogenic peptide substrate, Suc-Leu-Leu-Val-Tyr-AMC for 30 min at 37° C. in […] of assay buffer (50 mM Tris-HCl, pH 7.5), with or without a natural or synthetic tea polyphenol. After incubation, production of hydrolyzed 7-amido-4-methyl-coumarin (AMC) groups was measured using a multi-well plate VERSAFLUOR Fluorometer with an excitation filter of 380 nm and an emission filter of 460 nm (BIO-RAD), and a multi-well plate reader Wallac 1420 VICTORTM^2 with an excitation filter of 355 nm and an emission filter of 460 nm (EG&G WALLAC).
Purified prokaryotic (0.5 μg) or eukaryotic (0.02 μg) 20S proteasome was incubated with 20 μM fluorogenic peptide substrate, Suc-Leu-Leu-Val-Tyr-AMC for 30 minutes at 37° C. in 100 μl of assay buffer ([…] Tris-HCl, pH 7.5), with or without a natural or synthetic tea polyphenol. After incubation, production of hydrolyzed AMC groups was measured using a multi-well plate VERSAFLUOR Fluorometer with an excitation filter of 380 nm and an emission filter of 460 nm.
(−)-EGCG at 1 μM was incubated with eukaryotic 20S proteasome (0.02 μg) and suc-LLVY-AMC (20 μM) for the times indicated in FIG. 7. The chymotrypsin activity was measured and graphed in FIG. 7. Values are means from 4 independent experiments, and error bars represent standard deviations.
In the second experiment (−)-EGCG at 1 μM was pre-incubated with (SDS-pre) or without 0.01% SDS (no SDS) for 1 hour, followed by addition of eukaryotic 20S proteasome (0.02 μg) and suc-LLVY-AMC (20 μM). “SDS-post” represents the same treatment as “no SDS” except 0.01% SDS was added 1 hour after addition of the proteasome, (−)-EGCG and the substrate. AMC liberation was measured by fluorescence at each indicated time point and the percentage of chymotrypsin activity was determined. Values are means from 4 independent experiments, and error bars represent standard deviations.

LNCaP cells [2] = assay: Western blot of proteasome target proteins in LNCaP cells; assay type: cell-based, human; details: 25 μM, up to 9 hours
Method: (§2) Cell Culture, Cell Extract Preparation, and Western Blot Assay. Human leukemia Jurkat T and prostate cancer LNCaP cells were cultured in RPMI 1640 medium supplemented with 10% fetal calf serum, 100 units/ml of penicillin, and 100 μg/ml streptomycin. Human immortalized, non-transformed NK cells (YT cell line) (38) were cultured in RPMI 1640 supplemented with 1 mM MEM sodium pyruvate solution, 0.1 mM MEM non-essential amino acids solution, 10% fetal calf serum. 100 units/ml penicillin, and 100 μg/ml streptomycin. Normal (WI-38) and simian virus 40 (SV40)-transformed (VA-13) human fibroblasts were grown in Dulbecco's modified Eagle's medium supplemented with 10% fetal calf serum, 100 units/ml of penicillin and 100 μg/ml of streptomycin. All cells were maintained at 37° C. in a humidified incubator with an atmosphere of 5% CO2. A whole cell extract was prepared in accordance with An et al. (An, B. et al. Cell Death Differ, 1998, 5:1062-75). Briefly, cells were harvested, washed with PBS twice, and homogenized in a lysis buffer [50 mM Tris-HCl (pH 8.0), 5 mM EDTA, 150 mM NaCl, 0.5% NP-40, 0.5 mM phenylmethylsulfonyl fluoride, and 0.5 mM dithiothreitol] for 30 min at 4° C. Afterwards, lysates were centrifuged at 12,000×g for 15 min at 4° C., and the supernatants were collected as whole cell extracts. Equal amounts of protein extract (60 μg) were resolved by SDS-polyacrylamide gel electrophoresis and transferred to a nitrocellulose membrane using a Semi-Dry Transfer system (BIO-RAD, Hercules, Calif.). Jurkat T, LNCaP, or DU-145 cells were treated with various concentrations of synthetic or natural tea polyphenols for indicted hours. The enhanced chemiluminescence (ECL) Western blot analysis was then performed using specific antibodies to the proteins of interest (p^27kip, IκB-α, PARP, Bax or actin). The ratio of p27 or IκB-α to the corresponding actin was determined by scanning intensities of the protein bands.
To investigate whether (−)-EGCG-amide and (+)-EGCG-amide inhibit intact tumor cell proteasome activity, human prostate cancer LNCaP cells were treated with 25 μM of (−)- or (+)-EGCG-amide for up to 9 hours, followed by measurement of p27, IκB-α and Bax, three well-known proteasome target proteins (Pagano, M. et al. Science, 1995, 269:682-685; An, B. et al. Cell Death Differ, 1998, 5:1062-75; Sun, J. et al. Cancer Res, 2001, 61:1280-1284; Palombella, V. J. et al. Cell, 1994, 78:773-785; Thompson, J. E. et al. Cell, 1995, 80:573-582; Perkins, N. D. Trends Biochem Sci, 2000, 25:434-440; Chang, Y. C. et al. Cell Growth Differ, 1998, 9:79-84; Li, B. and Dou, Q. P. Proc Natl Acad Sci USA, 2000, 97:3850-3855; Nam, S. et al. Cancer Epidemiol Biomarkers Prey, 2001, 10:1083-1088). In this experiment (−)-EGCG and (+)-EGCG were used as positive controls.
Having determined that the synthetic GTP-1 to −5 analogs are able to inhibit the proteasomal chymotrypsin-like activity in vitro (FIG. 8), these compounds were investigated for their potency in inhibiting intact tumor cellular proteasome activity. To do so, human prostate cancer LNCaP cells were treated with one of these compounds for the indicated hours, followed by measuring levels of proteasome target proteins, p27, IκB-α, and Bax, and polyubiquitinated proteins.

VA-13 cells = assay: Western blot of p27 in SV40-transformed VA-13 fibroblasts; assay type: cell-based, human; details: 25 μM, 12 hours
Method: as §2
Normal WI-38 and SV40-transformed VA-13 cell lines were treated with 25 μM of (−)-EGCG, (−)-EGCG-amide, (+)-EGCG, (+)-EGCG-amide, or GTP-1 for either 12 hours or 36 hours.

MCF-7 cells = assay: Proteasome inhibition / p27 accumulation in MCF-7 cells; assay type: cell-based, human
purified 20S proteasome [3] = assay: Inhibition of chymotrypsin-like activity of purified 20S proteasome (source not stated); assay type: biochemical
Method: as §1

LNCaP cells [4] = assay: Soft agar colony formation assay; assay type: cell-based, human; details: 10 μM, 14 day-incubation
Method: Soft Agar Assay. The soft agar assay was performed according to Smith et al. (Smith, D. M. et al. Mol Med, 2002, 8:382-392) with a few modifications. In brief, in a six-well plate, a bottom feeder layer (0.6% agar) was prepared with DMEM media containing 10% fetal bovine serum, 100 units/ml penicillin, and 100 μg/ml streptomycin. A top layer (0.3% agar) was prepared with DMEM and the same media as described above but containing 2×10^4 prostate cancer LNCaP cells and indicated analogs or DMSO as a control. Plates were incubated at 37° C. in 5% CO2 in a humidified incubator for two weeks. MTT (1 mg/ml) was added to each well and incubated overnight to allow complete formation of purple formazan crystals. The plates were then scanned and photographed, and the number of colonies was quantified by QUANTITY ONE v.4.0.3 software (Bio-Rad, Hercules, Calif.).
The […] effects of several GTP analogs were investigated with a soft agar assay that measures the transforming activity of human tumor cells. LNCaP cells were plated in soft agar (see Materials and Methods) along with 50 μM of GTP-1, -2, -3, (−)-EGCG (as a positive control; Smith, D. M. et al. Mol Med, 2002, 8:382-392, 2002), or the solvent (as a negative control), followed by a 14 day-incubation to allow for colony formation (FIGS. 12A and 12B).
In a second experiment, LNCaP cells were plated in soft agar along with 10 μM of each indicated GTP or solvent (H2O), followed by a 14 day-incubation to allow for colony formation (FIG. 21A). […] Colonies were quantified with an automated counter and presented as mean values from triplicate independent experiments. Error bars denote standard deviations.

[5] = system: 26S proteasome in a Jurkat cell lysate; assay: Chymotrypsin-like activity of 26S proteasome in Jurkat cell lysate; assay type: biochemical, human; details: 10 μM
Method: To determine the specificity of the synthetic GTP analogs, their effects were tested on the chymotrypsin-like and trypsin-like activities of the 26S proteasome in a Jurkat cell lysate. […] (+)-GCG at the same concentration inhibited ˜50% of the chymotrypsin-like activity. The potencies of (+)-EGCG and (+)-GCG were similar to those of their natural partners, respectively (FIG. 17A). […] Furthermore, none of the synthetic or control natural compounds could inhibit more than 15% of activity of a purified calpain enzyme (FIG. 17C). […] Values are mean triplicates and error bars denote standard deviations.

purified 20S proteasome [6] = target: purified 20S proteasome (UniProt Q9P992); assay: Inhibition of chymotrypsin-like activity of purified 20S proteasome (source not stated); assay type: biochemical; design: other: 1 μM; other: 10 μM; details: 10 μM
Method: as §1

Chain of purified 20S proteasome (UniProt Q9P992) (Q9P992 whole entry): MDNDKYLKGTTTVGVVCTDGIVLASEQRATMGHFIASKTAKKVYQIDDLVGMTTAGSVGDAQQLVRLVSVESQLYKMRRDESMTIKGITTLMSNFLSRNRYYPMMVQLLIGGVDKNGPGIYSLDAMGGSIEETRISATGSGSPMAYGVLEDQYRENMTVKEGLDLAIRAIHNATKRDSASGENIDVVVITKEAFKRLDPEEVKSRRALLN

| IC50 [1] [µM] | Structure (SMILES) | levels of p27, IκB-α and Bax (LNCaP cells [2]) | levels of p27 protein (VA-13 cells) | inhibition of proteasome activity / accumulation of p27 (MCF-7 cells) | inhibition of the proteasome (in words) (purified 20S proteasome [3]) | inhibition of the proteasome (in words) (purified 20S proteasome [3]; listed as benzyl protected-EGCG) | inhibition of colony formation (LNCaP cells [4]) [%] | inhibition of chymotrypsin-like activity of 26S proteasome [5] | inhibition of proteasomal activity (purified 20S proteasome [6]) |
| --- | --- | --- | --- | --- | --- | --- | --- | --- | --- |
| 0.405 | O=C(N[C@H]1Cc2c(O)cc(O)cc2O[C@H]1c1cc(O)c(O)c(O)c1)c1cc(O)c(O)c(O)c1 [(+)-EGCG-amide, (+)-[2S, 3S]-N-[5,7-Dihydroxy-2-(3,4,5-trihydroxyphenyl)-chroman-3-yl]-3,4,5-trihydroxybenzamide] | able to increase levels of p27, IκB-α and Bax by 3 hours | significantly increased levels of p27 protein | able to inhibit the proteasome activity | – | – | – | – | – |
| – | O=C(O[C@H]1Cc2c(OCc3ccccc3)cc(OCc3ccccc3)cc2O[C@H]1c1cc(OCc2ccccc2)c(OCc2ccccc2)c(OCc2ccccc2)c1)c1cc(OCc2ccccc2)c(OCc2ccccc2)c(OCc2ccccc2)c1 [Bn-(+)-EGCG] | – | – | – | can not inhibit the proteasome | cannot inhibit the proteasome; also recorded: fails to inhibit the proteasome | ~10 | could not inhibit the proteasomal chymotrypsin activity at all | did not significantly inhibit |
